Assay results as given in article PMC6018403 (Frontiers in Pharmacology, 2018).
Where two headings read alike, the source gives them in different places.

What was measured:
[1] = system: db/db mice; assay: Evaluation of anti-diabetic effects in db/db mice; format: in vivo; details: P < 0.05, metformin 100 mg/kg/d
Description: Eight-week-old male db/db mice (30–35 g) were used, and the details were described in Supplemental Data. The mice were randomly divided into eight groups. Mice were orally administered with metformin (100 mg/kg/d, n = 6), berberine (50 mg/kg/d, n = 6), glycyrrhizic acid (80 mg/kg/d, n = 6), berberine (50 mg/kg/d) combined with low-dose of glycyrrhizic acid (50 mg/kg/d, n = 6), berberine (50 mg/kg/d) combined with high-dose of glycyrrhizic acid (80 mg/kg/d, n = 6), berberine (50 mg/kg/d) combined with Gan-Cao (2.2 g/kg/d, n = 7), and GQD (18.2 g/kg/d, n = 7) for 4 weeks. For the control group, the […] were administered with an equal volume of water. On day 28, after fasted for 12 h, retro-orbital blood samples were collected, stand for 1 h, and then centrifuged (6,000 rpm, 4°C) for 20 min to obtain serum. Biochemical indicators such as blood glucose and insulin were determined on a Mindray BS-800 analyzer (Mindray Bio-Medical Electronics Co.).
Herbal materials and extracts.
The four component herbs, Puerariae Lobatae Radix (Ge-Gen, GG), Scutellariae Radix (Huang-Qin, HQ), Coptidis Rhizoma (Huang-Lian, HL), and Glycyrrhizae Radix et Rhizoma Praeparata cum Melle (Gan-Cao, GC) were purchased from Tianheng Pharmacy. GQD was prepared by decocting the four component herbs […]
of water for three times (1.5 h, 1.5 h, 0.5 h) to obtain the extracts, followed by a pre-extraction of Ge-Gen using 200 mL of water for 0.5 h. The decoctions were combined, filtered, and concentrated in vacuum at 50 °C. GQD-GC was prepared using the same procedure, except that Gan-Cao was removed from the formula. Final concentration of the GQD-GC extract was equivalent to 1.0 g of the crude drugs per mL. For single herb extracts, the herbs were decocted in 8-fold volume of water for three times (1.5 h, 1.5 h, 0.5 h) and then concentrated. […]
For anti-diabetic study, Eight-week-old male db/db mice (30–35 g) were purchased from Card Vince Laboratory animal Co., Ltd. The mice were bred in a cage (318 × 202 × 135 mm) in a breeding room at 25 °C, 60 ± 5% humidity, and a 12-h dark-light […]
On day 28, db/db mice were fasted for 12 h, and blood was collected and centrifuged to obtain serum for insulin and biochemical tests. After that, 150 µL of plasma was prepared by adding 150 µL of internal standard solution, 150 µL of methanol, and 300 µL of acetonitrile. The processing method was consistent with sample preparation for […]
3.1. Optimization of chromatographic separation
Different solvents (67% methanol, and 100% methanol) were compared to effectively extract both hydrophilic and hydrophobic compounds of GQD. […]
better extraction recovery for most compounds. […]

[2] = target: T1, P-glycoprotein (P-gp) (Homo sapiens, UniProt P08183); assay: P-gp inhibitor and inducer experiments on Caco-2 cell monolayer; format: in vitro ADME; details: added together with BER 5 μM; verapamil 5 μM; rifampicin 5, 20, 50 μM
T1 construct: host or cells: Caco-2 (human colon adenocarcinoma) monolayers, passages 24-35
T1 sequence (P08183 whole entry): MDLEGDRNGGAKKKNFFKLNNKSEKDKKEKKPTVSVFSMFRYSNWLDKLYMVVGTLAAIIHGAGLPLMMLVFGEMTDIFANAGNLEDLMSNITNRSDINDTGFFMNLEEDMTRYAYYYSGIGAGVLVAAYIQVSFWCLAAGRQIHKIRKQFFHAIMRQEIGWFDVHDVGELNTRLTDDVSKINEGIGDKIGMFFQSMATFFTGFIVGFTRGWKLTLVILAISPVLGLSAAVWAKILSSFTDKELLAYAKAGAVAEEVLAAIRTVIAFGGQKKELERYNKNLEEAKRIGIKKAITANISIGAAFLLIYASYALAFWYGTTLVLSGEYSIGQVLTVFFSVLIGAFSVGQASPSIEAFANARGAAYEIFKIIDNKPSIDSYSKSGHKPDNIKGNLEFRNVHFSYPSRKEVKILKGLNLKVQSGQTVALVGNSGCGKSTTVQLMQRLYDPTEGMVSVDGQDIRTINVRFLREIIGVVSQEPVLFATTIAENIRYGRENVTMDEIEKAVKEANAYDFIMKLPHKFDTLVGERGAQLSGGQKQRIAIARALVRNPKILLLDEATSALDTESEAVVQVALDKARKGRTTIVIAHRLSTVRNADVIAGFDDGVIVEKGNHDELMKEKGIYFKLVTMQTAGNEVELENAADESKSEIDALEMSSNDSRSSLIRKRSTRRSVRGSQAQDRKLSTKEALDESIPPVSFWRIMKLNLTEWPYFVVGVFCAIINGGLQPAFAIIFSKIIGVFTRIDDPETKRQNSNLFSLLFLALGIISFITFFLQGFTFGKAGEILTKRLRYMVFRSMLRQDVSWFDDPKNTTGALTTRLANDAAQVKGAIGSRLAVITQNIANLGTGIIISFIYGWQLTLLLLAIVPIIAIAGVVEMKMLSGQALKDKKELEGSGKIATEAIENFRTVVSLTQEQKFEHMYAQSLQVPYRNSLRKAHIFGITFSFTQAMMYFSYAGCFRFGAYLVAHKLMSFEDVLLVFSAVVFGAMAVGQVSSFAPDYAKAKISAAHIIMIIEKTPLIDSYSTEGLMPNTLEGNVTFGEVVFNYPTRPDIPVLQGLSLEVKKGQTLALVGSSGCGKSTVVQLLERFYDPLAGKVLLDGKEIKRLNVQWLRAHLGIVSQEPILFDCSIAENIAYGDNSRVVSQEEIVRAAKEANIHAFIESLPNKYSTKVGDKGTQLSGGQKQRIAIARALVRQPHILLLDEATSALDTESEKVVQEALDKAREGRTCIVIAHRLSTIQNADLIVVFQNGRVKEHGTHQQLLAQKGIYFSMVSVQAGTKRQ
Description: The final concentration of GQD, GQD−GC, and Huang-Lian water extracts were 32, 28, and 6 μg/mL, respectively. […]
containing glucose (25 mM) and HEPES (10 mM). The final concentration of berberine was 5 µM. The final concentration of DMSO was below 1% (v/v). […]
inducer of Caco-2 cells, respectively. For the inhibitor experiments, the Caco-2 cells were cultivated in DMEM until the 21st day. After removal of the medium, the cells were incubated for 30 minutes with HBSS containing 5 µM of verapamil. For the inducer experiments, the cells were cultivated in DMEM until the 18th day, and then […]
was removed on the 21st day, and the cells were then incubated for 30 min with HBSS.
Berberine and glycyrrhizic acid were added to the system following HBSS incubation.
For all bidirectional transport assays, samples (300 µL) were collected after 30, 60, 90, […]
with an equal volume of HBSS. The samples were freeze-dried and then dissolved in 300 µL of methanol. The solutions were filtered through 0.22-µm membranes before […]
3. Inhibitor and inducer experiments […]
respectively. For the inhibition experiments, Caco-2 cells were cultivated in DMEM until the 21st day. After removal of the medium, the cells were incubated for 30 minutes with HBSS containing verapamil (5 µM). For induction experiments, the cells were cultivated in DMEM until the 18th day, and then cultivated in DMEM […]
The medium was removed on the 21st day, and the cells were then incubated for 30 min with HBSS. Berberine and glycyrrhizic acid were added to the system following HBSS incubation.

[3] = Multi-component pharmacokinetic study of GQD, GQD-GC and single herb extracts in rats (plasma, LC/MS/MS); format: in vivo, Sprague-Dawley rats; details: for AUC(0-t) / Cmax / half-life / Tmax: male, Sprague-Dawley, rat, plasma; for AUC(0-t): po, read-out: AUClast; for Cmax: read-out: Cmax; for half-life: read-out: T1/2 (converted); for Tmax: read-out: Tmax
In short: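 Male Sprague-Dawley rats (220–250 g, n = 10 per group) dosed orally with GQD, GQD-GC (1.0 g crude drug/mL) or single-herb decoctions. Plasma analytes quantified by LC/MS/MS in positive-ESI SRM mode. Cmax and Tmax taken from measured data, other parameters by non-compartmental or compartmental analysis; mean ± SD.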

[4] = in vivo, GG (Ge-Gen) group: rats, oral extract 9.45 g/kg
[5] = in vivo, GQD group: rats, oral GQD extract 18.9 g/kg
[6] = in vivo, GQD-GC group (GQD without Gan-Cao): rats, oral 16.5 g/kg
[7] = GC (Gan-Cao) group: rats, oral extract 2.36 g/kg
[8] = GQD group: rats, oral GQD extract 18.9 g/kg

CN(C)C(=N)N=C(N)N [Metformin, metformin, reference compound]
4-week body weight [1]: significant decrease

CO[C@H]1/C=C/O[C@@]2(C)Oc3c(C)c(O)c4c(O)c(c(/C=N/N5CCN(C)CC5)c(O)c4c3C2=O)NC(=O)/C(C)=C\C=C\[C@H](C)[C@H](O)[C@@H](C)[C@@H](O)[C@@H](C)[C@H](OC(C)=O)[C@@H]1C [rifampicin, reference compound]
effect on the efflux of BER [2]: increased | effect on the influx of BER [2]: decreased

COc1cc(-c2coc3c(C4OC(COC5OCC(O)(CO)C5O)C(O)C(O)C4O)c(O)ccc3c2=O)ccc1O (stereo not drawn) [Compound 37, 3'-methoxymirificin]
AUC(0-t) ([3]; in vivo, 9.45 g/kg, GG (Ge-Gen) group: rats, oral extract 9.45 g/kg): 47.4 ± 28.7 ng·h/mL | AUC(0-t) ([3]; in vivo, 16.5 g/kg, GQD-GC group (GQD without Gan-Cao): rats, oral 16.5 g/kg): 42.5 ± 11.3 ng·h/mL | AUC(0-t) ([3]; in vivo, 18.9 g/kg, GQD group: rats, oral GQD extract 18.9 g/kg): 86.3 ± 23.9 ng·h/mL | Cmax [3, 4]: 11.6 ± 0.56 ng/mL | half-life [3, 4]: 1.37 ± 0.19 h | Tmax [3, 4]: 0.36 ± 0.74 h | Cmax [3, 5]: 9.94 ± 3.68 ng/mL | half-life [3, 5]: 1.04 ± 0.04 h | Tmax [3, 5]: 0.36 ± 0.03 h | Cmax [3, 6]: 7.22 ± 3.27 ng/mL | half-life [3, 6]: 1.62 ± 0.39 h | Tmax [3, 6]: 0.35 ± 0.42 h

COc1ccc(-c2coc3cc(O)ccc3c2=O)cc1 [Compound 32, formononetin]
AUC(0-t) ([3]; 2.36 g/kg, GC (Gan-Cao) group: rats, oral extract 2.36 g/kg): 19.9 ± 7.99 ng·h/mL | AUC(0-t) ([3]; 18.9 g/kg, GQD group: rats, oral GQD extract 18.9 g/kg): 94.2 ± 32.6 ng·h/mL | Cmax [3, 7]: 1.71 ± 1 ng/mL | half-life [3, 7]: 3.22 ± 0.87 h | Tmax [3, 7]: 0.33 ± 0.13 h | Cmax [3, 8]: 8.62 ± 0.39 ng/mL | half-life [3, 8]: 23.8 ± 16.8 h | Tmax [3, 8]: 2.92 ± 0.08 h | plasma concentrations, effect of GQD compared with Gan-Cao ([3]; rats, oral): improved
